Measurements taken from patent US10517952B2, “Nucleophile-triggered degradable materials and methods of making and using the same” (GEORGIA TECH RESEARCH CORPORATION, priority 2014, dated 2019).

Key:
Assay type in all cases: physicochemical
[1] = Oscillatory rheology of PEG-OND hydrogels
Description: Oscillatory rheology was used to assess the viscoelastic properties of selected PEG-OND hydrogels. […] The truncated cone was then brought in contact with the bis-EONB/4-PEG-SH mixture before setting of the gel by positioning the tool at the measuring position. The sample was inspected for spillovers and trimmed as required. A preliminary preshearing step consisting of 30 seconds at 0.1% strain and ω=0.01 rad/s was performed to ensure good contact with the gel sample. The elastic (storage) and viscous (loss) moduli, G′ and G″, respectively, were then measured as a function of time for a constant strain of 1% and an angular frequency of 1 rad/sec. The ability to store energy is described by G′, while the amount of energy dissipated is related with G″. It was observed that the sample experienced a rapid transformation from an initial state in which G′ was not much larger than G″ to a state in which G′ was clearly predominant, as shown in FIG. 5; this is consistent with gelation. The observed transformation happened in the first few minutes after preparation, even when the hydrogel continued to rigidify for up to 2-3 hours.
The linear regime of this sample was determined by performing an oscillatory strain sweep at 37° C. The frequency sweep shown in the main text was thus performed in the linear region.
[…] In both experiments, G′>>G″.

[2] = Gelation of 4-PEG-SH with OND linkers, gelation time by inversion test
Description: PEG-OND hydrogels were prepared by mixing tetravalent thiol-terminated PEG (4-PEG-SH, Mw˜2,500 Da for each arm) at 3.5 weight percent and multivalent OND linkers at equimolar concentration of thiol and electrophile in phosphate buffer containing 7% DMSO by volume (FIG. 42). The reactions were mixed briefly and the gel was allowed to cure at temperature or 37° C. Gelation time was recorded as the point at which the sample no longer flowed upon inversion of the reaction vessel.
Trial gelations were performed by premixing a solution of linker 7a with four-armed thiol-terminated poly(ethylene glycol) (4-PEG-SH. Mn=10,000) in neutral water containing 17% DMSO by volume. The overall concentration of PEG macromer was varied from 0.4 wt % to 8.3 wt % while maintaining an equimolar ratio of thiol to electrophile. Under these conditions, no gels formed on standing at room temperature for five minutes.
Based on empirical observations made in these trials, subsequent gels were prepared at room temperature from 3.5 wt % 4-PEG-SH solutions in phosphate buffers containing 7% DMSO at equimolar concentrations of thiol and OND electrophile. Mixtures were mixed briefly with a vortex mixer, and the reaction vial was periodically tilted or inverted. Gelation time was recorded when the sample no longer flowed and was self-supporting. […] Gelation time at 37° C. was determined by pre-warming 4-PEG-SH macromer and OND stock solutions in a 37° C. water bath. Gel components were combined and mixed briefly by pipetting, and the sample was held in the water bath. Gelation time was determined by the inversion test, as described above.
The labeled protein solutions prepared as described in the previous section were diluted three-fold with pH 7.4 100 mM phosphate buffer and used to dissolve the 4-PEG-SH macromer at 3.76 wt %. This solution was used in an identical manner as pure 4-PEG-SH solution for the purpose of forming PEG-OND hydrogels (FIG. 45). All samples formed self-supporting hydrogels within 1 min after mixing, as determined by the inversion test.

[3] = Calculation of hydrogel mesh size from equilibrium swelling data; details: equilibrium-swollen gels
Description: Using the calculated molecular weight between crosslinks, Mc, and the method previously described by Canal and Peppas, the hydrogel mesh size was calculated. First, the root-mean-square end-to-end distance of the polymer chains in the network, (r0^2)^1/2, was calculated as follows: (r0^2)^1/2=lCn^1/2n^1/2 (Equation S10) where l is the average bond length in the polymer (0.146 nm for PEG) and Cn is the characteristic ratio of the polymer (4.0 for PEG). The average number of bonds between crosslinks, n is calculated using the following equation:
[formula] where Mc is the average molecular weight between crosslinks, calculated as described in the previous section, and Mr is the molecular weight of the repeating unit for the PEG macromer (44 g/mol). Finally, the mesh size, ξ, is calculated using the following relationship: ξ=v2,s^−1/3(r0^2)^1/2 (Equation S12) where v2, is the partial volume of polymer in the equilibrium swollen hydrogel, and is calculated using the experimentally determined equilibrium weight swelling ratios.

[4] = Equilibrium swelling, gel fraction and Mc (Flory-Rehner) of PEG-OND hydrogels; details: for Mc (apparent molecular weight between elastic crosslinks): calculated with the Flory-Rehner equation from swelling results; for Gel Fraction: mass of dry residue post-swelling/input mass of OND and 4-PEG-SH; for Equilibrium Swelling Ratio: mass post-swelling/mass pre-swelling, deionized water, 4° C., 24 hours, n = 3 gels
Description: The swelling of the PEG-OND hydrogels in deionized water was measured at 4° C. to prevent significant fragmentation during the experiment. […] An independent experiment measuring soluble fraction thiol content yielded results complementing those obtained gravimetrically (Table S3, and related discussion below). With the knowledge that small molecules can readily permeate swollen PEG-OND hydrogels (see below), detecting and modifying residual thiols in gels prepared from divalent linkers 7a and 8 by swelling in the presence of a fluorogenic OND derivative was attempted (FIG. 15, and related discussion below).
200 μL gels were prepared in pH 7.4 100 mM phosphate buffered saline containing 7% DMSO with 3.5 wt % 4-PEG-SH and the corresponding bis-, tris-, and tetra-ONDs to provide a 1:1 thiol to electrophile ratio, and allowed to cure for 20 minutes at room temperature. The mass of the gels after curing was recorded (Meq) before suspending in 5.5 mL of water. The hydrogels were stored at 4° C. during swelling to prevent significant degradation of the network during the experiment. The increase in mass of the gels was monitored periodically by decanting and blotting the gel gently with a kimwipe to remove excess water before weighing. After 24 hours swelling, when swelling had stabilized, the mass of the gel was recorded (Meq). The equilibrium mass swelling ratio was then determined using the following relationship:
After weighing equilibrium-swelled gels to determine equilibrium mass swelling ratio, the gels were freeze-dried and the residual mass was weighed (Mres). It is expected that buffer salts present in the sample when it was formed were removed by the multiple changes of swelling solvent (pure water). The mass of the remaining residue was compared to the input mass (Min) of 4-PEG-SH macromer and OND-based linker. The ratio of the residual mass and the input mass provides the fraction of material by mass incorporated into the hydrogel network (gel fraction), as shown in the following equation: […]
The apparent molecular weight between elastically-productive crosslinks (Mc) was determined from equilibrium swelling data, collected as described in section VII.1 and applying a modified form of the Flory-Rehner equation for networks formed under dilute conditions:
[formula] where Mn is the number average molecular weight for the polymeric macromer (10,000 g/mol), v is the specific volume of the polymer ([…] for PEG) V1 is the molar volume of solvent used for swelling ([…] for water), χ is the polymer-interaction parameter (0.43 for PEG-H2O and assumed constant for the described experiments). V2, and V2, are the volume fraction of polymer in the equilibrium swollen gel and the relaxed gel after curing, respectively, and are calculated as follows:
[formula] where qw is the weight swelling ratio after equilibrium swelling, qF is the weight swelling ratio after curing, ρp is the density of the polymer (1.12 g/cm^3 for PEG), ρwater=ρcure solvent is the density of swelling solvent and solvent during gel formation (1.00 g/cm^3 for water). The weight swelling ratios qw and qF are determined from data gathered in equilibrium swelling experiments using the following relationships:
[formula] where ms is the mass of the gel after equilibrium swelling, mc is the mass of the gel after curing, and md is the mass of the dried gel, or input mass of polymer and crosslinkers.
Using the formulae above, masses of hydrogel samples recorded after equilibrium swelling, curing, and drying were applied to estimate the apparent molecular weight between crosslinks, which are summarized in Table 1 of the main text. The experimentally observed Mc values for gels formed using divalent OND linkers was lower than theoretical ideal value Mc,ideal. This can be explained by the fact that the Mc,ideal values calculated for these gels (entries 1-5 of Table S1) are greater than the entanglement molecular weight for polyethylene glycol (˜4,400 g/mol). […]

[5] = Erosion of swollen hydrogels (BODIPY erosion probe, time-lapse photography); details: 37° C., erosion probe
Text: Degradation behavior of PEG-OND hydrogels under swelling conditions was investigated by labeling 3% of the 4-PEG-SH thiols with a BODIPY fluorophore via maleimide coupling before gelation. Gels prepared from this material are expected to have slightly lower crosslink densities and to degrade sooner when compared to gels formed without the erosion probe (FIG. 19). However, the probe-labeled macromer allowed convenient monitoring and comparison of erosion behavior under conditions relevant for biological applications. An increase in absorbance (504 nm) of the swelling buffer was observed as pieces containing the labeled PEG-thiol components were detached from the gel by rDA fragmentation (FIG. 2). […] Using combinations of linkers, it was possible to produce hydrogels with release profiles tuned between those of gels prepared from a single linker (FIG. 2C).
The 3.76 wt % solution of BODIPY-labeled 4-PEG-SH prepared above was used to form hydrogels using a method identical to unlabeled gels. Briefly, BODIPY-labeled 4-PEG-SH was combined with DMSO stocks of multivalent ONDs at equimolar concentration of thiol and electrophile. […] The absorbance of the supernatant at 504 nm was measured immediately to obtain a baseline measurement (t=0 hours), and the samples were placed into a 37° C. incubator. The absorbance of the swelling supernatant was monitored periodically by removal of 1 mL of buffer into a cuvette and measuring absorbance of the sample at 504 nm. […] This process was repeated for each sample until gel degradation was complete and the absorbance at 504 nm stabilized (100% dye released). In order to estimate the fraction of dye released from the non-degradable gel formed with bi s-EONB 8, a mock endpoint sample consisting of BODIPY-labeled 4-PEG-SH diluted to 3.5 wt % was prepared, and the absorbance at 504 nm was measured. […] The absorbance values collected over the course of the experiment were divided by the absorbance value measured after gel disintegration to obtain fractional dye release versus time. […]
The time at which the glass bead reached the bottom of the tube was recorded. […]

Row | Gel stability ([1]; gel formed at pH 8.0, 4° C.) | Time to revert to the liquid state (crossover of G′ and G″) ([1]; gel formed at pH 8.0, room temperature) [min] | Storage modulus G′ versus loss modulus G″ ([1]; pH 8.0, 4° C., strain and frequency sweeps) | Gelation time ([2]; buffer pH 8.0, room temperature) [min] | Gel formation ([2]; pH 6.5-7.4) | Gel formation ([2]; pH 7.4) | Calculated mesh size [3] [nm] | Mc (apparent molecular weight between elastic crosslinks) [4] [g/mol] | Gel Fraction [4] | Equilibrium Swelling Ratio [4] | Gel stability under swelling conditions compared with gels from divalent ONDs [5] | Compound
1 | fairly stable | ≤ 30 | G′>>G″ | ≤ 1.5 | formed only viscous solutions | did not form self-supporting gels | – | – | – | – | – | COC(=O)C1=C(C(=O)OC)C2(CNC(=O)CCCC(=O)NCC34C=CC(C)(O3)C(C(=O)OC)=C4C(=O)OC)C=CC1(C)O2 [Linker 7c, Tetramethyl 4,4′-((glutaroylbis(azanediyl))bis(methylene))bis(1-methyl-7-oxabicy-clo[2.2.1]hepta-2,5-diene-2,3-dicarboxylate)]
2 | – | – | – | – | – | – | 13.7 ± 1.3 | 3846 ± 102 | 0.98 ± 0.08 | 1.54 ± 0.07 | more stable gels | COC(=O)C1=C(C(=O)OC)C2(CNC(=O)CC(O)(CC(=O)NCC34C=CC(O3)C(C(=O)OC)=C4C(=O)OC)C(=O)NCC34C=CC(O3)C(C(=O)OC)=C4C(=O)OC)C=CC1O2 (stereo not shown) [Linker 11, Tetramethyl 1,1′-(((2-(2-(((2,3-bis(methoxycarbonyl)-7-oxabicyclo[2.2.1]hepta-2,5-dien-1-yl)methyl)amino)-2-oxoethyl)-2-hydroxysuccinyl)bis(azanediyl))bis (methylene))bis(7′-oxabicyclo[2.2.1]hepta-2,5-diene-2,3-dicarboxylate)]
3 | – | – | – | – | – | – | 13.3 ± 0.9 | 3740 ± 95 | 0.96 ± 0.05 | 1.44 ± 0.08 | more stable gels | COC(=O)C1=C(C(=O)OC)C2(CNC(=O)CCOCC(COCCC(=O)NCC34C=CC(O3)C(C(=O)OC)=C4C(=O)OC)(COCCC(=O)NCC34C=CC(O3)C(C(=O)OC)=C4C(=O)OC)COCCC(=O)NCC34C=CC(O3)C(C(=O)OC)=C4C(=O)OC)C=CC1O2 (stereo not shown) [Linker 12, Tetramethyl 1,1′-(8,8-bis((3-(((2,3-bis(methoxycarbonyl)-7-oxabicyclo[2.2.1]hepta-2,5-dien-1-yl)methyl)amino)-3-oxopropoxy)methyl)-3,13-dioxo-6,10-dioxa-2,14-diazapentadecane-1,15-diyl)bis(7-oxabicyclo[2.2.1]hepta-2,5-diene-2,3-dicarboxylate)]
